According to article PMC5053481, “Structural Insights into the Methylation of C1402 in 16S rRNA by Methyltransferase RsmI” (PLoS ONE, 2016):
Each block holds one molecule with its values, some of them ahead of it.

How the values were obtained:
RsmI (full-length) [1] = target: RsmI (full-length) (Escherichia coli, UniProt P67087, F144A); test: isothermal titration calorimetry, one-site model; format: binding; settings: read-out: Ka (10^4/M) (converted)
RsmI (G12-P258) = RsmI (G12-P258) (Escherichia coli, UniProt P67087); test: X-ray crystal structure, […] Å; format: binding; settings: co-crystallised, AdoMet:RsmI 5:1; site between NTD and CTD
RsmI (full-length) [2] = target: RsmI (full-length) (Escherichia coli, UniProt P67087, Y169A); test: isothermal titration calorimetry, one-site model; format: binding; settings: read-out: Ka (10^4/M) (converted)
Sequence of RsmI (full-length) (Escherichia coli, UniProt P67087, Y169A) (P67087 whole entry Y169A): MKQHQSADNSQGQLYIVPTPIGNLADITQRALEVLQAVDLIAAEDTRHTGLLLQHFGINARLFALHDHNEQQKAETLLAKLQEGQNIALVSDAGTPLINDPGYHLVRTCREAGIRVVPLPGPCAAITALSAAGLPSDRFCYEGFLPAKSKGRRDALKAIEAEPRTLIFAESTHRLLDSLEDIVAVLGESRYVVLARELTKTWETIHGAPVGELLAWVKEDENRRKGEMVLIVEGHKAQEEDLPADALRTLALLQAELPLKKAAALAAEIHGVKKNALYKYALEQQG

RsmI (full-length) [3] = target: RsmI (full-length) (Escherichia coli, UniProt P67087); test: isothermal titration calorimetry, one-site model; format: binding; settings: read-out: Ka (10^4/M) (converted)
Sequence of RsmI (full-length) (Escherichia coli, UniProt P67087) (P67087 whole entry): as the sequence (P67087 whole entry Y169A) above, with A169Y counted along it

[4] = target: the molecule itself; test: SEC; gel filtration on Superdex 200 10/300 GL; purified RsmI (Gly12-Pro258) eluted at 15.0 ml, compared with protein standards

Sequence of RsmI (full-length) (Escherichia coli, UniProt P67087, F144A) (P67087 whole entry F144A): as the sequence (P67087 whole entry Y169A) above, with F144A, A169Y counted along it

Kd (RsmI (full-length) [1]): 67.6 µM
Kd (RsmI (full-length) [2]): 24.2 µM
Kd (RsmI (full-length) [3]): 23.3 µM
Molecule: C[S+](CC[C@H](N)C(=O)O)C[C@H]1O[C@@H](n2cnc3c(N)ncnc32)[C@H](O)[C@@H]1O (some centres unmarked) [AdoMet]
X-ray crystal structure, 2.20 Å (RsmI (G12-P258)): coordinate and structure factor of RsmI-AdoMet complex have been deposited with the RCSB PDB

B1: RsmI truncation Gly12-Pro258 (E. coli 16S rRNA 2'-O-methyltransferase RsmI) (domain or fragment, Escherichia coli, UniProt P67087 12-258, looked up)
chain: GQLYIVPTPIGNLADITQRALEVLQAVDLIAAEDTRHTGLLLQHFGINARLFALHDHNEQQKAETLLAKLQEGQNIALVSDAGTPLINDPGYHLVRTCREAGIRVVPLPGPCAAITALSAAGLPSDRFCYEGFLPAKSKGRRDALKAIEAEPRTLIFYESTHRLLDSLEDIVAVLGESRYVVLARELTKTWETIHGAPVGELLAWVKEDENRRKGEMVLIVEGHKAQEEDLPADALRTLALLQAELP
notes: RsmI, AdoMet-dependent methyltransferase for 2'-O-methylation of C1402 in 16S rRNA, Escherichia coli, residues Gly12-Pro258; It was co-crystallised with the cofactor AdoMet; The asymmetric unit holds three molecules: one non-crystallographic dimer and one half of a crystallographic dimer; also called RmsI; RsmI (G12-P258); source: expressed and purified as reported previously [15]
stoichiometry N [4]: 2
